Laboratory results taken from ChEMBL document CHEMBL1201862, “PubChem BioAssay data set” (2004).
Activity calls are given as the source filed them. For most assays here, no stated cut-off is given here; in the data, actives have a measured EC50 and inactives only a lower limit.

What was measured:
[1] = Luminescence Cell-Based Dose Retest to Confirm Inhibitors of Cancer Stem Cells. [Related pubchem assays (depositor defined):AID2717, AID2721]; assay type: functional; settings: Homo sapiens
[2] = target: T1, Heat shock factor protein 1 (Mus musculus, UniProt P38532); experiment: enhancement of HSF1-driven luciferase signal – cell-based, NIH3T3, luminescence, dose retest, confirmation (AID 435004); assay type: functional;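 further: stress induced by proteasome inhibitor MG132 added 30 min after compound; luciferase reporter driven by HSF1 response element in NIH3T3 cells; actives raise luminescence as potentiators of the MG132 stress response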
T1 sequence (P38532 whole entry): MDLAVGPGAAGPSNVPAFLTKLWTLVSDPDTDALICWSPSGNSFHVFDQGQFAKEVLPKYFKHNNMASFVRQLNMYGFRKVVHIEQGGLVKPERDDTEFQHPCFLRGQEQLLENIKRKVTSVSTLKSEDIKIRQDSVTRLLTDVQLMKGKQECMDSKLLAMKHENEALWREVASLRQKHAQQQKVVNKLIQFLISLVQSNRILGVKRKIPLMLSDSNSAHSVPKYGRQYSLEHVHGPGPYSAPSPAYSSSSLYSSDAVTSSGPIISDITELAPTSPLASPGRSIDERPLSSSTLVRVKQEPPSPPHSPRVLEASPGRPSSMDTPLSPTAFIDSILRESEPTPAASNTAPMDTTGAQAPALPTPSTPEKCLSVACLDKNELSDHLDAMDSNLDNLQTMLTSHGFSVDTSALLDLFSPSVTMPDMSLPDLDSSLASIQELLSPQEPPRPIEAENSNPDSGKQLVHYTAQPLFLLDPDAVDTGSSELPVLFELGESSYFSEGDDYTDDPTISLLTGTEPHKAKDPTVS

[3] = target: Luciferin 4-monooxygenase (Photinus pyralis, UniProt P08659); experiment: inhibition of purified Photinus pyralis luciferase – biochemical, luminescence, dose response (AID 1891)
[4] = Luminescence Cell-Based Dose Confirmation HTS to Identify Inhibitors of Platelet Dense Granule Release. [Related pubchem assays: 1663 (Primary HTS), 1678 (Summary of Project)]; assay type: functional
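Wherever AC50 is given: cells exposed to compound for roughly 70 hours or longer before luminescence read.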

Luciferin 4-monooxygenase, sequence (P08659 whole entry): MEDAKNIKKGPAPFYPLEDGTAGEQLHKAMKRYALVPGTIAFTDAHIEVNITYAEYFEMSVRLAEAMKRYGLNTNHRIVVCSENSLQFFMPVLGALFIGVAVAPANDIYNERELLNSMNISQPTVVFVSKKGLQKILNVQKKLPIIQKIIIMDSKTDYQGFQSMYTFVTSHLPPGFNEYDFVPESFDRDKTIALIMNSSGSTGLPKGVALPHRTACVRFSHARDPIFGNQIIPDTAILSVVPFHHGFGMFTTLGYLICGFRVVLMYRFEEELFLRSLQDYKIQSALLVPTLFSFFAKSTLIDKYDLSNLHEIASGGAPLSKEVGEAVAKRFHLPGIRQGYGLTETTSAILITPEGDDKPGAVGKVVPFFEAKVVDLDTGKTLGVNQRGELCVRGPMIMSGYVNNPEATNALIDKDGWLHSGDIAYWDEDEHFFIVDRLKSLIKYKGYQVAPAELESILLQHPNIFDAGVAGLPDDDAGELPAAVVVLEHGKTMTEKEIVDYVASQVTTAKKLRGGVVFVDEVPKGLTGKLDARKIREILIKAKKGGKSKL

EC50 [2]	Compound	EC50 [3]	EC50 [4]	also measured
–	CCOC(=O)c1c(C)nc2c(c1-c1ccc(Cl)cc1)C(=O)CC(C)(C)C2	–	–	AC50 [1]: 12.2 µM (active)
> 260 µM (inactive)	CCOC(=O)c1cc(NC(=O)COc2ccc([N+](=O)[O-])cc2)cc(C(=O)OCC)c1	–	–	–
> 260 µM (inactive)	Cc1ccc(S(=O)(=O)N2CCN(C(=O)CSc3ccc(Cl)cc3)CC2)cc1	–	–	–
–	CCOc1ccc(CN(CCO)CCO)cc1C(=O)OC	> 112 µM (not active)	> 112 µM (not active)	–
–	O=S(=O)(Nc1ccc(-c2ccc3nncn3n2)cc1)c1cc(F)ccc1F	> 112 µM (not active)	> 112 µM (not active)	–
> 260 µM (inactive)	CC(C)(Oc1ccc(Cl)cc1)C(=O)Nc1ccc2oc(-c3ccncc3)nc2c1	–	–	–
–	Cc1ccc(Cl)cc1NC(=O)c1cc(S(=O)(=O)N2CCOCC2)cn1C	> 112 µM (not active)	> 112 µM (not active)	–
–	CCOC(=O)C(C)n1cnc2c(nnn2-c2ccc(F)cc2)c1=O (stereo unspecified)	> 112 µM (not active)	> 112 µM (not active)	–
> 260 µM (inactive)	O=C(Nc1ccc(O)c(-c2nc3ccccc3o2)c1)C1(c2ccc(Cl)cc2)CCCC1	–	–	–
–	Cc1cccc(C)c1NS(=O)(=O)c1ccc(NC(=O)c2ccc(Cl)c([N+](=O)[O-])c2)cc1	–	–	AC50 [1]: 1.46 µM (active)
> 260 µM (inactive)	CCc1cc(C(=O)c2ccc(OC)cc2)c(N)s1	–	–	–
98.6 µM (active)	CC(C)[C@H](NC(=O)OC(C)(C)C)c1nnc(SCC(=O)Nc2ccc(Br)cc2)o1	–	–	–
–	O=C(Nc1nccs1)c1ccc(COc2ccccc2Cl)o1	–	–	AC50 [1]: 2.45 µM (active)
–	COc1ccccc1Nc1nc(NCc2ccco2)c2ccccc2n1	> 112 µM (not active)	> 112 µM (not active)	–
–	O=C1CC(c2ccc(F)cc2)CC2=Nc3ccccc3NC=C12 (stereo unspecified)	–	–	AC50 [1]: 3.58 µM (active)
> 260 µM (inactive)	CCOc1cc(C(=S)N2CCOCC2)ccc1OS(=O)(=O)c1ccc(C)cc1	–	–	–
> 260 µM (inactive)	O=C(O)c1c(Cl)c(Cl)c(Cl)c(Cl)c1C(=O)N1CCCC1	–	–	–
> 260 µM (inactive)	Cc1cccc(NC(=O)CC(C)S(=O)(=O)c2ccc3c(c2)NC(=O)CO3)c1C (stereo unspecified)	–	–	–
> 260 µM (inactive)	COC(=O)C1CCN(C(=O)COC(=O)c2ccc(OC)c(S(=O)(=O)N3CCCc4ccccc43)c2)CC1	–	–	–
–	COC(=O)c1ccc(N2CCN(CC(=O)c3ccc(-c4ccccc4)cc3)CC2)c([N+](=O)[O-])c1	> 112 µM (not active)	> 112 µM (not active)	–
–	Cc1ccc(NC(=O)CSCc2ccc(F)cc2)cc1	> 112 µM (not active)	> 112 µM (not active)	–
–	CC(NC(=O)c1cc(S(=O)(=O)N2CCCC2)cn1C)c1ccccc1 (stereo unspecified)	> 112 µM (not active)	> 112 µM (not active)	–
–	Cc1ccc(Nc2nc(N3CCOCC3)c3ccccc3n2)cc1	> 112 µM (not active)	> 112 µM (not active)	–
–	Cc1[nH]c2ccccc2c1C(=O)CSc1nncn1C	> 112 µM (not active)	> 112 µM (not active)	–
–	COc1ccc(OC)c(NC(=O)NNC(=O)COc2ccc(-c3ccccc3)cc2)c1	–	–	AC50 [1]: 47.3 µM (active)
137 µM (active)	CCc1ccc(CN2C(=O)c3ccccc3C2C(=O)NCC2CCCO2)cc1 (stereo unspecified)	–	–	–
